Laboratory results reported in US11179394B2, “Method for treating cancer using a combination of Chk1 and ATR inhibitors” (priority 2014, dated 2021).

Assays:
[1] = system: DLD-1 cells expressing the inactive mutant form of Chk1 (S317A/-); assay: Clonogenic survival assay; assay type: cell-based; conditions: Homo sapiens; DLD-1 Chk1 S317A/-; 1 μM VE-821; read-out: viable cells remaining
Protocol: (§1) 500 cells of U2OS, MCF-7, DLD-1, DLD-1 Chk-1^S317A/-, DLD-1 Chk-1^+/−, DLD-1 ATR^S/S and 1000 cells of VH-10 were plated on 10 cm plate. After 5 hr. of incubation (5% CO2 at 37° C.) vehicle (0.05% DMSO max) various concentration of ATR inhibitor VE-821 were directly added to the media containing plate and incubated for 72 hr. At the end of 72 hr. of incubation, vehicle and drug containing media was replaced with fresh media and further incubated for another 5-8 days before plates were fixed and stained with 4% methylene blue in MeOH and colonies were counted manually. Each data point represents a triplicate data set±SEM.

MCF-7 cancer cells = assay: Clonogenic survival assay; assay type: cell-based; conditions: 1 μM VE-821, 72 hr, AZD7762 20 nM where combined
Protocol: as §1

U2OS cancer cells = assay: Clonogenic survival assay; assay type: cell-based; conditions: 1 μM VE-821, 72 hr, AZD7762 20 nM where combined
Protocol: as §1

Parental DLD-1 cells = assay: cells; assay type: cell-based; conditions: Homo sapiens, DLD-1, read-out: cell viability
Protocol: as §1

HA1EB-GFP parental cells = assay: Cell viability by resazurin staining; assay type: cell-based; conditions: 72 hours, VE-821 up to 5 μM, AZD7762 30 nM
ATR = ATR (Homo sapiens, UniProt Q13535); conditions: 1 μM VE-821; cited from earlier work
Chain of ATR (Q13535 whole entry): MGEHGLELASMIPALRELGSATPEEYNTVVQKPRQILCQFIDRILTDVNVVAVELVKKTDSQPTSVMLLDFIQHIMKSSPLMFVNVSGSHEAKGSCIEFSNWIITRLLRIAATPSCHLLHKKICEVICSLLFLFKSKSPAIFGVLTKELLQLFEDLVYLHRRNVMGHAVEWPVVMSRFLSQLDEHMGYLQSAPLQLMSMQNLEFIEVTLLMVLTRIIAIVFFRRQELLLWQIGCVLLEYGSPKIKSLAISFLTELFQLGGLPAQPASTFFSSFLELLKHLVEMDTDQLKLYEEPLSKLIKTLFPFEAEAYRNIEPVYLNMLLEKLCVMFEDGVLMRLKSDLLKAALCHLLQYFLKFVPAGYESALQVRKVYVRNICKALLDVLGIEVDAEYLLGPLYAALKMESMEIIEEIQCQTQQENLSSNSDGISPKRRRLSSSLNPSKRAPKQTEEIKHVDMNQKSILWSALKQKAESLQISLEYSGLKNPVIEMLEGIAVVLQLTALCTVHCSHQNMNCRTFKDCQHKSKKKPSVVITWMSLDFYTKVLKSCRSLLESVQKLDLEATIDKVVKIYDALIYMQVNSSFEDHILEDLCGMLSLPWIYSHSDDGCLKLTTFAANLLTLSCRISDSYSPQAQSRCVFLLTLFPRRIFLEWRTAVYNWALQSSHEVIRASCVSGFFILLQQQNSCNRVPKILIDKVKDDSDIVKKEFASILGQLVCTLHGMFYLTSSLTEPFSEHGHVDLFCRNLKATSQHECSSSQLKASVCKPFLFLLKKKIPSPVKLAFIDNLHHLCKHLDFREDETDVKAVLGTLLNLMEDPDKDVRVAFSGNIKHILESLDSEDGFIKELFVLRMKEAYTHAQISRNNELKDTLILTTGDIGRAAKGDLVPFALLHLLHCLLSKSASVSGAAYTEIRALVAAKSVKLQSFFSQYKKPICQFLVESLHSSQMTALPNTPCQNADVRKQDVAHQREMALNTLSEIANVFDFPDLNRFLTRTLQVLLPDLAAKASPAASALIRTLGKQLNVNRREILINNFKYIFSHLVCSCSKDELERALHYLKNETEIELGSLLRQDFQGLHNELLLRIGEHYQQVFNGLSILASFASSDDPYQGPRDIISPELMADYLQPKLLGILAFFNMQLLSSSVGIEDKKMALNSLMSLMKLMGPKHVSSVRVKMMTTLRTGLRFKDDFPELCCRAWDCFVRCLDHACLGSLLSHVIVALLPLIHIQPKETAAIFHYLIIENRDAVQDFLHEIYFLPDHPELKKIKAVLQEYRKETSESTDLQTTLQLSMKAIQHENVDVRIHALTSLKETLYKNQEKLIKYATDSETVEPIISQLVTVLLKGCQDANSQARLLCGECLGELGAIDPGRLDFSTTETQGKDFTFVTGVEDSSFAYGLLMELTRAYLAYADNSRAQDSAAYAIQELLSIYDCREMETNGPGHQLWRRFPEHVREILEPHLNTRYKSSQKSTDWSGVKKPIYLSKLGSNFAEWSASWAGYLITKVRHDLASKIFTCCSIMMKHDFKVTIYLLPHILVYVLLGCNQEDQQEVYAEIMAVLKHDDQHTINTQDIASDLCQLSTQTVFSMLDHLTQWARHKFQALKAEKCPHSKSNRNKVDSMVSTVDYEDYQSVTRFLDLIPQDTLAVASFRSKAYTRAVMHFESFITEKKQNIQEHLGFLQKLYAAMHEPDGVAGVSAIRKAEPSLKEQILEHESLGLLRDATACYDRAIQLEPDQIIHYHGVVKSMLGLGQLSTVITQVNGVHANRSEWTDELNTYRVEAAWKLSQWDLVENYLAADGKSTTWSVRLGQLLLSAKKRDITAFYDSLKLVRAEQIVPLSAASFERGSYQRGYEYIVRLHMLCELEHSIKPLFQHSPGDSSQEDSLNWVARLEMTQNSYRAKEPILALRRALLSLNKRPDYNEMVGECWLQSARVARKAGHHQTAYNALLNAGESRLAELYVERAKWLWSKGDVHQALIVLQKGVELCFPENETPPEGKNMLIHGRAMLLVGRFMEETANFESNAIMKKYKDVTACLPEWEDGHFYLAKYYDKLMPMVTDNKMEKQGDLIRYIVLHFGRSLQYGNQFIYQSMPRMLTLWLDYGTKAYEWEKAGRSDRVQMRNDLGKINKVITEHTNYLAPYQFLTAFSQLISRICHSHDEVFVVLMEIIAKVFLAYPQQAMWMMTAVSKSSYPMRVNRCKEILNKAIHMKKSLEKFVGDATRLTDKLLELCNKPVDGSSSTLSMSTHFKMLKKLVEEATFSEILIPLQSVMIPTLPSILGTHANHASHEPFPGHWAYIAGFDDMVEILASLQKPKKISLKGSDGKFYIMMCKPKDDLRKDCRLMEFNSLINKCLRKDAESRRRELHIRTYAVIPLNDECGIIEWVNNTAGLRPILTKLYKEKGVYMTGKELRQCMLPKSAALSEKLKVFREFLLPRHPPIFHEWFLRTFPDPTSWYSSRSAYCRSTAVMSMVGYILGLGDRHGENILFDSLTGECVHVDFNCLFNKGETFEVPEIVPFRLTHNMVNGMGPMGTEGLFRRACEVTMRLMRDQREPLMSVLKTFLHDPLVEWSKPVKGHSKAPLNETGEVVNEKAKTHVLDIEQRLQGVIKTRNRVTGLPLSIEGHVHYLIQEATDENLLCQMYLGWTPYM
Chain of ATR (Q8WXE1 whole entry partner): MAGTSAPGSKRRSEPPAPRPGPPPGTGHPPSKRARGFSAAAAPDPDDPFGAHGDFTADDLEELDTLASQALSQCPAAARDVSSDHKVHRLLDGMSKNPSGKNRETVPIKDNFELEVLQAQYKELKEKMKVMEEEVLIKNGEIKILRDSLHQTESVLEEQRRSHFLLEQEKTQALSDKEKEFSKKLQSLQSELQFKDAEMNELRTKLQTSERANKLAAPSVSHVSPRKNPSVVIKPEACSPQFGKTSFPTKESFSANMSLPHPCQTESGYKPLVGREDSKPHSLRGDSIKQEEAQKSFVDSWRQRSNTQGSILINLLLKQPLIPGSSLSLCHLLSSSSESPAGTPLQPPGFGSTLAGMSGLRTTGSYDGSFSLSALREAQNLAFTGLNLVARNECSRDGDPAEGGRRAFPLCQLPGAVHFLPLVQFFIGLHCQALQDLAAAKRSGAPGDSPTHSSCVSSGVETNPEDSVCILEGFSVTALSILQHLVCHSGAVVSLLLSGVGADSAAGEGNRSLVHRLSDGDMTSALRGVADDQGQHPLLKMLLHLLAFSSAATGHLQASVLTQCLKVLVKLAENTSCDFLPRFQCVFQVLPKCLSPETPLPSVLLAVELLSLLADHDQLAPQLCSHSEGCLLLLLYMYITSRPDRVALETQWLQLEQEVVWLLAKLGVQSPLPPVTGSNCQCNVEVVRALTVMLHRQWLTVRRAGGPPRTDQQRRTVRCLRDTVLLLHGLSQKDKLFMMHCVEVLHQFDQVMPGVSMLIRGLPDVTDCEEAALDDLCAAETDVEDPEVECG

[2] = system: cMYC transformed cells, HA1EB-GFP-cMYC; assay: Cell viability by resazurin staining; conditions: 72 hours, VE-821 up to 5 μM, AZD7762 30 nM
[3] = system: BJ RAS cells (BJ-SV40T transformed with activated H-RAS(G12V)); assay: Cell viability by resazurin staining; conditions: 72 hours, VE-821 up to 5 μM, AZD7762 30 nM
Protocol: (§2) In addition, the impact of expression of the H-RAS oncogene was assessed in the BJ-SV40T cells transformed with activated H-RAS(G12V) (BJ RAS).

[4] = system: MX-1 breast cancer cell line; conditions: AZD7762 25 mg/kg intraperitoneal, VE-822 60 mg/kg oral gavage; for survival: combination P<0.05
Protocol: (§3) In the case of the MX-1 model, 2 million cells in 50% matrigel were injected in nude mice and for the H460 model 5 million cells in PBS were injected in nude mice. After 8-9 days of implantation animals were divided into 4 groups of 5 animals based on tumor size; with mean tumor volume of 130 mm^3. […] Body weight and tumor volume were measured twice a week. Tumor volume was measured with caliper and shown as mean±S.E.M (length×width×width×0.52).

[5] = system: H460 lung cancer cell line; conditions: AZD7762 25 mg/kg intraperitoneal, VE-822 60 mg/kg oral gavage; for survival: combination vs monotherapy P<0.01; for tumor size / tumor growth: combination vs monotherapy P<0.05
Protocol: as §3

U2OS cells = assay: Cleaved caspase-3 (apoptosis) with hydroxyurea; assay type: cell-based; conditions: 24 hr, hydroxyurea (2 mM) alone
Protocol: Referring to FIG. 5, the impact of Chk1 inhibition by AZD7762 on cell apoptosis from treatment with the ATR inhibitor VE-821 and a representative DNA damaging agent, hydroxyl urea (2 mM), was assessed by measuring levels of cleaved caspase-3, a widely used marker of apoptosis. U2OS cells were treated for 24 hr. with the DNA damaging agent hydroxyurea and varied doses of AZD7762 and/or VE-821. Cells were subsequently stained with anti-cleavage caspase 3 and β actin antibodies and confocal microscopy used to take and quantify images. Data are presented as % cells positive for cleaved capsae-3.

BJ-hTERT parental cells = assay: Cell viability by resazurin staining; assay type: cell-based; conditions: 72 hours, AZD7762 30 nM
Protocol: Referring to FIG. 2D, an isogenic cell pair was used to assess the impact of loss of p53 and RB on cell sensitivity to the combination of VE-821 and AZD7762 (BJ-hTERT parental cells vs BJ-SV40T cells expressing the Large Tumor Antigen which inactivates p53 and RB function). In addition, the impact of expression of the H-RAS oncogene was assessed in the BJ-SV40T cells transformed with activated H-RAS(G12V) (BJ RAS). Cells were treated with either VE-821 alone (at concentrations up to 5 μM), AZD7762 alone (30 nM) or the combination of VE-821 and AZD7762 for 72 hours.

[6] = system: BJ-SV40T cells (p53 and RB inactivated); assay: Cell viability by resazurin staining; conditions: 72 hours, VE-821 up to 5 μM, AZD7762 30 nM
Protocol: as §2

CS(=O)(=O)c1ccc(-c2cnc(N)c(C(=O)Nc3ccccc3)n2)cc1 [VE-821]
viability at 1 µM [1]: < 3%
clonogenic survival (MCF-7 cancer cells): 10-20%
clonogenic survival (U2OS cancer cells): 10-20%
viability at 1 µM (Parental DLD-1 cells): ~100%
effect on viability (HA1EB-GFP parental cells): Neither VE-821 nor AZD7762 had a marked effect
ATR activity inhibited (ATR): about 50%
viable cells remaining [2]: ~40%
viable cells remaining [3]: ~60%

CNCc1ccc(-c2cc(-c3nc(-c4ccc(S(=O)(=O)C(C)C)cc4)cnc3N)on2)cc1 [VE-822]
tumor size / tumor growth [4]: minimal impact
survival [4]: minimal impact
survival [5]: minimal impact
tumor size / tumor growth [5]: minimal impact

NC(=O)NO [hydroxyurea]
cells positive for cleaved caspase-3 (U2OS cells): < 0.5%

NC(=O)Nc1cc(-c2cccc(F)c2)sc1C(=O)N[C@H]1CCCNC1 [AZD7762, reference compound]
effect on viability (HA1EB-GFP parental cells): Neither VE-821 nor AZD7762 had a marked effect
effect on viability (BJ-hTERT parental cells): did not have a marked effect
tumor size / tumor growth [4]: reduced tumor growth
survival [4]: no impact
survival [5]: minimal impact
tumor size / tumor growth [5]: minimal impact
viable cells remaining [2]: did not impact the viability
viable cells remaining [6]: did not have a marked effect
viable cells remaining [3]: did not have a marked effect
